The values below come from patent US4775674A, “Imidazoquinolinylether derivatives useful as phosphodiesterase and blood aggregation inhibitors” (Bristol-Myers Company, priority 1986, dated 1988).

Values after ≈ are worked out from the molar mass of the structure shown. Read-outs that look alike come from different tables or passages of the source.

The test system of assay [1] is platelet aggregation (Ex Vivo vs. ADP). As to the kind of experiment: Inhibition of platelet aggregation following oral administration (Ex vivo). In kind it is in vivo. To be noted: Rattus norvegicus, rats, oral by gavage, 2 hours after dosing. The method, then:
This test is sometimes referred to in the art as an Ex vivo method and was initially described by Fleming, et al., Arch. Int. Pharmacodyn. Ther., 199, 164 (1972). Briefly, the assay is essentially carried out as follows.
Aggregometry is performed in vitro as previously described on platelet rich plasma samples obtained from rats dosed with either test compounds or the vehicle. In all cases, activity is determined 2 hours after the drug is administered orally at various doses by gavage as a suspension in […] plus a few drops of Tween 20.

Assay [2] has as its system collagen-induced platelet aggregation. Description: In vitro inhibition of platelet aggregation, collagen-induced (rabbit platelet rich plasma). In kind it is cell-based. The conditions noted are these: Oryctolagus cuniculus, collagen suspension 0.05 ml, read-out: Platelet Inhibition In Vitro - Rabbit PRP EC50 vs. collagen. On the procedure: (§1) The aggregometer method of Born (1), as modified by Mustard, et al. (2) was used to assess the in vitro activity of the various compounds as to inhibition of adenosine diphosphate (ADP) and collagen-induced platelet aggregation. Platelet rich plasma (PRP) was separated by centrifugation from citrated (3.8 percent) rabbit blood. […] The various compounds tested were dissolved in dimethylsulfoxide (DMSO) so that 5 mcl added to the platelet rich plasma would yield the desired test concentration. Vehicle control trials were done and compared with aggregation induced in platelet rich plasma containing various concentrations of the test compounds. Dose response curves were obtained and Effective Concentration (EC50) values calculated.

Assay [3] relates to adenosine diphosphate (ADP)-induced platelet aggregation. As to the kind of experiment: In vitro inhibition of platelet aggregation, ADP-induced (rabbit platelet rich plasma). In kind it is cell-based. To be noted: Oryctolagus cuniculus, ADP 0.5 mcg/ml, read-out: Platelet Inhibition In Vitro - Rabbit PRP EC50 vs. ADP. On the procedure: as §1
For assay [4], the system named is ferrets (right ventricular contractile force, blood pressure). As to the kind of experiment: In vivo inotropic activity in ferrets. Also noted: species or system ferret. The conditions noted are these: Mustela putorius, 1 h, anesthetized ferret, intraduodenal, 60 minutes. On the procedure: This test is carried out in ferrets as follows. Fasted anesthetized ferrets are instrumented to study hemodynamic parameters as well as right ventricular contractile force (RVCF) using a Walton-Brodie open strain guage arch. Drugs are administered intraduodenally as solutions in DMSO (1 mL or less) and effects on myocardial contractile force and other parameters are monitored for 60 minutes after dosing. Changes in contractile force in response to drug treatment are expressed in terms of percent change from predose control.

For assay [5], the target named is T1, cAMP phosphodiesterase (human platelets) (Homo sapiens, UniProt Q14432).
T1 construct: enzynme obtained from human platelets; from tissue; host or cells: human platelets
As to the kind of experiment: Inhibition of cyclic AMP phosphodiesterase. The class given is biochemical. The conditions noted are these: PDE from human platelets. On the procedure:
This assay is carried out essentially as described by Thompson, et al., Methods in Enzymology, 38, 205-212 (1974). Briefly, tritium labeled cyclic adenosine monophosphate (cAMP) is incubated with a phosphodiesterase (PDE) enzynme obtained from human platelets which converts a portion of the cAMP to 5'AMP in culture tubes. This reaction is terminated by submerging the tubes in a boiling water bath after which they are placed on ice and an aliquot of snake venom is added to each tube. This, during a second incubation, converts the 5'AMP to adenosine. Ion exchange resin is added to bind the remaining cyclic AMP. The tubes are centrifuged to sediment the resin and a portion of the clear supernatent (which contains radioactive adenosine) is counted in a liquid scintillation counter. The cAMP phosphodiesterase inhibition activity of a test agent is determined by pre-incubating the PDE enzyme preparation with the test agent.

Where [6] appears, read: vs predose control, read-out: Maximum Percentage Change Right Ventricular Contractile Force (RVCF).
[7] abbreviates: read-out: Maximum Percentage Change Blood Pressure.

By ED50 is commonly meant the dose at which the effect has come halfway, by size or by number of responders. What is called EC50 is the concentration at which the effect is half-maximal. Broadly, the IC50 is the midpoint of a concentration-inhibition curve.

T1 sequence (Q14432 whole entry): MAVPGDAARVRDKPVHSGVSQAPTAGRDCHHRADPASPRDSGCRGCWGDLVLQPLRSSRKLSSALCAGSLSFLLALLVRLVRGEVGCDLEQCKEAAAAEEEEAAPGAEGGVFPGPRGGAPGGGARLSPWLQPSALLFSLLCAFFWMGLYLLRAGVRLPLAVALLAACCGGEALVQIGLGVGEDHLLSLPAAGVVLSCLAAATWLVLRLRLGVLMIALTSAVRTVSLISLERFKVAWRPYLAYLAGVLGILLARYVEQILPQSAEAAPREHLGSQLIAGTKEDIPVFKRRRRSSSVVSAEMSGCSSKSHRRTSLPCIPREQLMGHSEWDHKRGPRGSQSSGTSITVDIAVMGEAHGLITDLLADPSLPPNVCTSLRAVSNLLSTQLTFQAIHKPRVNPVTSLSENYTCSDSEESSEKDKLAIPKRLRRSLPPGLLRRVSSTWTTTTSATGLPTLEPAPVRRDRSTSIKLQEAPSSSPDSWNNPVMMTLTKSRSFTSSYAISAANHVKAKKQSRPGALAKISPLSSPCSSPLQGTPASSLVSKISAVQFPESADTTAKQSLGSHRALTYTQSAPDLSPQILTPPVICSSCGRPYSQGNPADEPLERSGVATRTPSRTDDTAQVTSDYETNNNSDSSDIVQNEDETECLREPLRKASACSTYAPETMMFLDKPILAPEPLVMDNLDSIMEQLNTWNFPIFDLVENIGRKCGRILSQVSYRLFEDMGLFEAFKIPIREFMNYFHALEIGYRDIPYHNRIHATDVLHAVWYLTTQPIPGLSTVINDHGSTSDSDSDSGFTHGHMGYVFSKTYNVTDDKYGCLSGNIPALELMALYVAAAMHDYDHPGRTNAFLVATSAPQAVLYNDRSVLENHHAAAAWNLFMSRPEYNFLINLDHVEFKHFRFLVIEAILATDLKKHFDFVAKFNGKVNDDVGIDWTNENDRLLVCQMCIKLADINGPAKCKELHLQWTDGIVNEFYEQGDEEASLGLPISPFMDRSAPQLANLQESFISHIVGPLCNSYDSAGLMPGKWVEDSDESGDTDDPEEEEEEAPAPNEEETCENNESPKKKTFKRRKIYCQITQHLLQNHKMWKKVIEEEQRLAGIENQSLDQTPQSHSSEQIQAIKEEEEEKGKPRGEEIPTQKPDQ

For `COC(=O)CCCOc1ccc2nc3[nH]c(=O)[nH]c3cc2c1` [Example 10, Methyl 4-[(2,3-Dihydro-2-oxo-1H-imidazo[4,5-b]quinolin-7-yl)oxy]butanoate], the ED50 in assay [1] is 4.4 mg/kg. Also, the results for the EC50 in assay [2] and in assay [3] were 6 ng/mL (≈ 0.0199 µM) and 20 ng/mL (≈ 0.0664 µM), respectively. The change in vivo at 0.3 mg/kg in assay [4] (setting [6]) was 9 ± 10%; in assay [4] (setting [7]) it was -14 ± 9%. Moreover, the change in vivo at 3 mg/kg was -9 ± 1% in assay [4] (setting [6]) and -14 ± 8% in assay [4] (setting [7]). For the same molecule, the midpoint of inhibition in assay [5], the IC50, lay at 400 nM.
`O=C(CCCOc1ccc2nc3[nH]c(=O)[nH]c3cc2c1)NC12CC3CC(CC(C3)C1)C2` [Example 16, 4-[(2,3-Dihydro-2-oxo-1H-imidazo[4,5-b]quinolin-7-yl)oxy]-N-(tricyclo[3.3.1^3,7]decan-7-yl)butanamide]: the 50% effect level in assay [1] (ED50) was put at a dose of 4 mg/kg. The EC50 is 20 ng/mL (≈ 0.0476 µM) in assay [2] and 50 ng/mL (≈ 0.119 µM) in assay [3]. In addition, the change in vivo at 3 mg/kg in assay [4] (setting [6]) was 6 ± 3%; in assay [4] (setting [7]), -10 ± 4%. Also, half-maximal inhibition in assay [5] (IC50) was put at 1 nM.
`Cn1c(=O)[nH]c2nc3ccc(OCCCC(=O)NC4CCCCC4)cc3cc21` [Example 19, N-Cyclohexyl-4-[(2,3-dihydro-1-methyl-2-oxo 1H-imidazo[4,5-b]quinolin-7-yl)oxy]butanamide] gave a median effective dose (ED50) in assay [1] of 8.3 mg/kg. Besides, the EC50 was found to be 9 ng/mL (≈ 0.0235 µM) in assay [2] and 70 ng/mL (≈ 0.183 µM) in assay [3]. In assay [5], the IC50 came out at 700 nM.
In the case of `COC(=O)CN(C(=O)CCCOc1ccc2nc3[nH]c(=O)[nH]c3cc2c1)C1CCCCC1` [Example 21, N-Cyclohexyl-N-[4-[(2,3-dihydro-2-oxo-1H-imidazo[4,5-b]quinolin-7-yl)oxy]-1-oxobutyl]glycine Methyl Ester], the ED50 in assay [1] was < 3 mg/kg. Besides, the half-maximal effective concentration (EC50) in assay [2] was 0.8 ng/mL (≈ 0.00182 µM); in assay [3] it was 2.5 ng/mL (≈ 0.00568 µM). Moreover, the change in vivo at 3 mg/kg is 26% in assay [4] (setting [6]) and -26% in assay [4] (setting [7]). It took 0.5 nM to reach half-maximal inhibition in assay [5] (IC50).
As to `CN(C(=O)CCCOc1ccc2nc3[nH]c(=O)[nH]c3cc2c1)C1CCCCCC1` [Example 22, N-Cycloheptyl-N-methyl-4-[(2,3-dihydro-2-oxo-1H-imidazo[4,5-b]quinolin-7-yl)oxy]butanamide], the median effective dose (ED50) in assay [1] was determined as 6.2 mg/kg. Also, the EC50 came out at 2 ng/mL (≈ 0.00504 µM) in assay [2] and 7 ng/mL (≈ 0.0177 µM) in assay [3]. In addition, the figures for the change in vivo at 0.3 mg/kg in assay [4] (setting [6]) and in assay [4] (setting [7]) were 29 ± 5% and -26 ± 4%, respectively.
With `CN(C(=O)CCCOc1ccc2nc3[nH]c(=O)[nH]c3cc2c1)C1CCCCC1` [Example 30, N-Cyclohexyl-N-methyl-4-[(2,3-dihydro-2-oxo-1H-imidazo[4,5-b]quinolin-7-yl)oxy]butanamide], the 50% effective dose (ED50) in assay [1] was 2.4 mg/kg. Further, in assay [2], the concentration for a half-maximal effect (EC50) amounted to 1 ng/mL (≈ 0.00261 µM). For the same molecule, the 50% effective concentration (EC50) in assay [3] amounted to 2 ng/mL (≈ 0.00523 µM). Besides, in assay [4] (setting [6]), the change in vivo at 0.03 mg/kg is 8 ± 2%, the change in vivo at 0.3 mg/kg worked out at 41 ± 5% and the change in vivo at 3 mg/kg is 35 ± 2%. Moreover, in assay [4] (setting [7]), the change in vivo at 0.03 mg/kg is -3%, the change in vivo at 0.3 mg/kg is -27 ± 6% and the change in vivo at 3 mg/kg is -30 ± 2%. For the same molecule, in assay [5], the IC50 amounted to 2 nM.
In assay [1], `CN(C(=O)CCCOc1ccc2nc3nc(O)n(C)c3cc2c1)C1CCCCC1` [Example 31, N-Cyclohexyl-N-methyl-4-[(2,3-dihydro-1-methyl-2-oxo-1H-imidazo[4,5-b]quinolin-7-yl]oxo]butanamide] returned an ED50 of 2.1 mg/kg. For the same molecule, the EC50 in assay [2] turned out to be 18 ng/mL (≈ 0.0454 µM); in assay [3] it was 20 ng/mL (≈ 0.0504 µM). Moreover, the change in vivo at 0.3 mg/kg is 0% in assay [4] (setting [6]) and -28 ± 5% in assay [4] (setting [7]). Also, the change in vivo at 3 mg/kg is 3 ± 6% in assay [4] (setting [6]) and -36 ± 3% in assay [4] (setting [7]). This molecule came in with an IC50 in assay [5] of 200 nM.
`CN(C(=O)CCCCOc1ccc2nc3[nH]c(=O)[nH]c3cc2c1)C1CCCCC1` [Example 32, N-Cyclohexyl-N-methyl-5-[(2,3-dihydro-2-oxo-1H-imidazo[4,5-b]quinolin-7-yl)oxo]pentanamide]: in assay [1], the 50% effective dose (ED50) is 3.8 mg/kg. In addition, the EC50 in assay [2] was found to be 0.8 ng/mL (≈ 0.00202 µM); in assay [3] it was 3 ng/mL (≈ 0.00757 µM). Moreover, the values for the change in vivo at 0.3 mg/kg in assay [4] (setting [6]) and in assay [4] (setting [7]) were 18 ± 4% and -27 ± 10%, respectively. The IC50 in assay [5] was found to be 2 nM.
In turn, `CN(C(=O)CCCCOc1ccc2nc3[nH]c(=O)[nH]c3cc2c1)C1CCCCCC1` [Example 33, N-Cycloheptyl-N-methyl-5-[(2,3-dihydro-2-oxo-1H-imidazo[4,5-b]quinolin-7-yl)oxy]pentanamide] returned an ED50 in assay [1] of 1.7 mg/kg. The EC50 came out at 0.6 ng/mL (≈ 0.00146 µM) in assay [2] and 2 ng/mL (≈ 0.00487 µM) in assay [3]. Moreover, the change in vivo at 0.3 mg/kg in assay [4] (setting [6]) is 27 ± 8%; in assay [4] (setting [7]) it was -34 ± 2%. In assay [5], this molecule showed a 50% inhibitory concentration (IC50) of 0.4 nM.
Regarding `O=c1[nH]c2cc3cc(OCCCCS(=O)(=O)c4ccccc4)ccc3nc2[nH]1` [Example 35, 7-[4-(Phenylsulfonyl)butoxy]-1,3-dihydro-2H-imidazo[4,5-b]quinolin-2-one], the ED50 in assay [1] was 4.3 mg/kg. Also, the concentration for a half-maximal effect (EC50) in assay [3] was 70 ng/mL (≈ 0.176 µM). The change in vivo at 3 mg/kg is 11 ± 5% in assay [4] (setting [6]) and -10 ± 8% in assay [4] (setting [7]). In assay [5], this molecule showed an IC50 of 1 nM.
